Results: ChEMBL document CHEMBL1201862, “PubChem BioAssay data set” (2004)
Where “and” joins values, the source holds several entries; their conditions need not be identical. Identical values can stand only once.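 Briefly, cells in 96-well plates were exposed to five compound concentrations for 48 h, and endpoints were estimated by linear interpolation. Here, GI50 denotes the concentration required for 50% inhibition of growth.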 Calls of active or inactive are those of the source. No stated cut-off is given here; in the data, active = GI50 up to about 1.1 µM and inactive = higher.

What was measured:
Assay in all cases: NCI anticancer screen, dose series, 48 h
HCC 2998 = test system: HCC 2998
RXF 393 = test system: RXF 393
UACC-257 = test system: UACC-257
MDA-MB-231 = test system: MDA-MB-231
SF-295 = test system: SF-295
OVCAR-8 = test system: OVCAR-8
SK-OV-3 = test system: SK-OV-3
MDA-MB-435 = test system: MDA-MB-435
SF-268 = test system: SF-268
SK-MEL-5 = test system: SK-MEL-5
OVCAR-5 = test system: OVCAR-5
NCI-H522 = test system: NCI-H522
UACC-62 = test system: UACC-62
CAKI-1 = test system: CAKI-1
HT-29 = test system: HT-29
SNB-19 = test system: SNB-19
Malme-3M = test system: Malme-3M
CCRF-CEM = test system: CCRF-CEM
MCF7 = test system: MCF7
A549 = test system: A549
UO-31 = test system: UO-31
SN12C = test system: SN12C
NCI-H460 = test system: NCI-H460
RPMI-8226 = test system: RPMI-8226
HCT-116 = test system: HCT-116
SK-MEL-2 = test system: SK-MEL-2
PC-3 = test system: PC-3
U-251 = test system: U-251
M14 = test system: M14
HL-60 = test system: HL-60
HOP-62 = test system: HOP-62
EKVX = test system: EKVX
K562 = test system: K562
OVCAR-3 = test system: OVCAR-3
Hs-578T = test system: Hs-578T
ACHN = test system: ACHN
KM12 = test system: KM12
SK-MEL-28 = test system: SK-MEL-28
NCI-H23 = test system: NCI-H23
MOLT-4 = test system: MOLT-4
SNB-75 = test system: SNB-75
786-0 = test system: 786-0
HOP-92 = test system: HOP-92
A498 = test system: A498
TK-10 = test system: TK-10
SF-539 = test system: SF-539
HCT-15 = test system: HCT-15
DU-145 = test system: DU-145
COLO 205 = test system: COLO 205
IGROV-1 = test system: IGROV-1
OVCAR-4 = test system: OVCAR-4
NCI/ADR-RES = test system: NCI/ADR-RES
MDA-N = test system: MDA-N
BT-549 = test system: BT-549
LOX IMVI = test system: LOX IMVI
SW-620 = test system: SW-620

Measured: GI50

CN(C)CC1CCCCCCCCCCC1=O (centres undefined)
inactive: HCC 2998 > 10 µM | RXF 393 > 10 µM | UACC-257 > 10 µM | MDA-MB-231 > 10 µM | SF-295 > 10 µM | OVCAR-8 > 10 µM

COC1=CC(c2ccc(Br)[nH]2)=N/C1=C/NCC(C)C
1.3 µM: HCT-15
inactive: SK-OV-3 2.53 µM | MDA-MB-435 1.93 µM | SF-268 2.26 µM | SK-MEL-5 1.53 µM | OVCAR-5 2.11 µM | NCI-H522 1.49 µM | UACC-62 1.98 µM | CAKI-1 2.36 µM | HT-29 1.24 µM | SNB-19 3.6 µM | Malme-3M 1.75 µM | A549 1.46 µM | UO-31 2.06 µM | SN12C 2.21 µM | HCC 2998 1.34 µM | NCI-H460 1.62 µM | HCT-116 1.44 µM | SK-MEL-2 1.5 µM | PC-3 1.47 µM | U-251 1.51 µM | M14 1.98 µM | HL-60 1.39 µM | HOP-62 1.47 µM | K562 2.65 µM | OVCAR-3 1.62 µM | UACC-257 2.07 µM | Hs-578T 2.29 µM | ACHN 1.21 µM | KM12 1.26 µM | SK-MEL-28 2.75 µM | NCI-H23 1.58 µM | MDA-MB-231 2.02 µM | MOLT-4 1.33 µM | SNB-75 5.18 µM | 786-0 1.55 µM | HOP-92 1.32 µM | A498 2.23 µM | SF-295 1.6 µM | OVCAR-8 2.01 µM | TK-10 2.55 µM | SF-539 2.06 µM | COLO 205 1.24 µM | IGROV-1 2.37 µM | OVCAR-4 1.86 µM
active: CCRF-CEM 581 nM | MCF7 1.09 µM | RPMI-8226 0.412 µM | EKVX 368 nM | DU-145 475 nM

CCOC(=O)N/N=C(/N)Cc1ccc(Cl)cc1
> 100 µM: HCT-15
inactive: SK-OV-3 > 100 µM | MDA-MB-435 > 100 µM | SF-268 > 100 µM | SK-MEL-5 > 100 µM | OVCAR-5 > 100 µM | NCI/ADR-RES > 100 µM | NCI-H522 > 100 µM | UACC-62 > 100 µM | HT-29 > 100 µM | SNB-19 > 100 µM | CCRF-CEM > 100000 nM | MCF7 > 100 µM | A549 > 100 µM | UO-31 > 100 µM | SN12C > 100 µM | HCC 2998 > 100 µM | MDA-N > 100 µM | RPMI-8226 > 100 µM | RXF 393 > 100 µM | HCT-116 > 100 µM | SK-MEL-2 > 100 µM | PC-3 > 100 µM | U-251 > 100 µM | M14 > 100 µM | HOP-62 > 100 µM | EKVX > 100000 nM | BT-549 > 100 µM | K562 > 100 µM | OVCAR-3 > 100 µM | UACC-257 > 100 µM | LOX IMVI > 100 µM | ACHN > 100 µM | KM12 > 100 µM | SK-MEL-28 > 100 µM | NCI-H23 > 100 µM | MDA-MB-231 > 100 µM | MOLT-4 > 100 µM | SNB-75 > 100 µM | 786-0 > 100 µM | HOP-92 > 100 µM | SF-295 > 100 µM | OVCAR-8 > 100 µM | TK-10 > 100 µM | SF-539 > 100 µM | DU-145 > 100000 nM | COLO 205 > 100 µM | SW-620 > 100 µM | IGROV-1 > 100 µM | OVCAR-4 > 100 µM

CC1OC(OC2C(OC(=O)[C@]34CCC(C)(C)C[C@H]3C3=CC[C@@H]5[C@@]6(C)CC[C@H](OC7OC(C(=O)O)C(O)C(OC8OCC(O)C(O)C8O)C7O)C(C)(C)[C@@H]6CC[C@@]5(C)[C@]3(C)CC4)OCC(O)C2O)C(O)C(OC2OCC(O)C(O)C2O)C1OC1OCC(O)C(OC2OCC(O)C(O)C2O)C1O (some centres undefined)
inactive: SF-268 16.7 µM and 8.51 µM | SK-MEL-5 14.5 µM and 18.4 µM | NCI/ADR-RES 7.55 µM and 14.4 µM | UACC-62 16.4 µM and 28.8 µM | CAKI-1 5.93 µM and 10.7 µM | SNB-19 9.86 µM and 14.2 µM | CCRF-CEM 14.6 µM and 13.2 µM | MCF7 7.93 µM and 5.35 µM | HCC 2998 2 µM and 3.89 µM | RXF 393 15 µM and 18.2 µM | PC-3 9.68 µM and 11.1 µM | HOP-62 14.9 µM and 16.9 µM | EKVX 17.4 µM and 9.31 µM | Hs-578T 26.6 µM and 18.4 µM | LOX IMVI 10.8 µM and 13.4 µM | ACHN 7.28 µM and 12.3 µM | NCI-H23 7.06 µM and 13.9 µM | MDA-MB-231 3.3 µM and 3.16 µM | MOLT-4 9.91 µM and 17.9 µM | SNB-75 12.2 µM and 14.1 µM | 786-0 12.1 µM and 21.7 µM | A498 2.66 µM and 2.28 µM | OVCAR-8 13.2 µM and 17.5 µM | TK-10 11.2 µM | SF-539 20.5 µM | DU-145 15 µM and 28.2 µM | OVCAR-4 7.96 µM and 14.3 µM
18.6 µM and 15.3 µM: HCT-15
